{"source": "BindingDB's records for patent US20240116926", "about": "(Astrazeneca, 2024)", "target": "T1, Transcriptional enhancer factor TEF-3 [217-434] (Homo sapiens, UniProt Q15561)", "T1 construct": "217-434", "T1 sequence (Q15561 217-434)": "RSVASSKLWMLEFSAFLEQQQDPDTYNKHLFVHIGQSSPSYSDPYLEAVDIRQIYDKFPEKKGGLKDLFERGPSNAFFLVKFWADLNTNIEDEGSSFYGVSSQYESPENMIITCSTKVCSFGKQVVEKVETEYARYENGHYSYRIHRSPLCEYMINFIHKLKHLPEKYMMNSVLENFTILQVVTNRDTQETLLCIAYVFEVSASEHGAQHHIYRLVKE", "test": "TEAD4 FRET Assay", "note": "pIC50: −log10 of the molar value."}
{"compound": "C=CC(=O)N1C[C@H](C#N)[C@H](Nc2nnc(-c3ccc(C(F)(F)F)cc3)c3ccccc23)C1", "note": "(single isomer, unassigned) [US20240116926, Example 29]", "values": [{"measurement": "pIC50", "value": 6.89}]}
